The values that follow are results of earlier work, collected in US20110208118A1, “COMPOSITIONS AND MEANS FOR TREATING UTERINE LEIOMYOMATA, LEIOMYOMA, MYOMA, UTERINE FIBROIDS, ENDOMETRIOSIS, ADENOMYOSIS AND RELATED DISORDERS BY MIFEPRISTONE” (Bio-Pro Medical Ltd., priority 2007, published 2011).

The series deals with uterine leiomyomata.
The mark [1] stands for this setting: oral mifepristone doses of 5 mg-50 mg.

For the compound `CC#C[C@]1(O)CC[C@H]2[C@@H]3CCC4=CC(=O)CCC4=C3[C@@H](c3ccc(N(C)C)cc3)C[C@@]21C` [mifepristone], the “Reduction in volume of leiomyomata, 10 mg vs 20 mg groups” value (10 mg and 20 mg mifepristone daily for 12 weeks, women with large leiomyomata (Yang et al.)) is “equivalent in the two groups”. Where the note is “5, 25, and 50 mg of mifepristone daily for 12 weeks (Murphy et al.)”, the “regression in the size of uterine leiomyomata” value was “clinically significant regression”. Under setting [1], the “uterine and uterine fibroids size” value is “reduction in uterine and uterine fibroids size”; the uterine fibroids symptoms result is on record as “improvement in uterine fibroids symptoms”.
